Experimental data reported in US20040180961A1, “Compositions and preparation methods for bioavailable oral aceclofenac dosage forms” (priority 2001, published 2004).

Assay: Dissolution of aceclofenac in pure artificial gastric juice (paddle method)
Assay type: physicochemical
Method: The pharmaceutical preparation containing acelcofenac was completely dissolved in 500 ml of an ethanol solution containing phosphate buffer (pH 6.8) at a volume ratio of 50%, where a preparation further containing substances of low solubility was shaken for 10 min. The resultant solution was centrifuged at 15,000 rpm for 2 min, and then filtered with a 0.45 μm membrane filter. After properly diluting 1 ml of the filtered solution, sample was used in quantification of aceclofenac, using HPLC. In a analysis of aceclofenac, a column was C18 ODS column (4.6×150 mm, 5 μm), an absorbance was at a wave length of 282 nm, a mobile phase was a mixture of MeOH:0.02 M KH2PO4 (65:35), a flow rate was 1 ml/min. 20 μl of sample was injected. Quantification of aceclofenac was accomplished with width ratio of aceclofenac and internal standard (Ethyl paraben).
Dissolution rate of acelcofenac contained in the pharmaceutical preparation was analyzed according to the dissolution test method disclosed in a guidebook “Korea Pharmacopeia (7th revision)”. A NaCl—HCl buffer solution (pH 1.4±0.1) was used as artificial gastric juice, supplemented with Tween 80 in a volume ratio of 0.3% according to intended use. 0.02 M phosphate-buffered solution (pH 6.8±0.1) was used as an artificial intestinal juice. Dissolution was performed according to the paddle method at a stirring rate of 50 rpm and a dissolution temperature of 37±0.5° C., using 500 ml of dissolution solution. […] The collected sample was centrifuged at 15,000 rpm for 2 min and filtered using a 0.45 μm membrane filter. Quantification of aceclofenac was accomplished by using HPLC. In analyzing the dissolution rate of aceclofenac, column was C18 ODS column (4.6×150 mm, 5 μm), absorbance was a wave length of 282 nm, a mobile phase was a mixture of MeOH:0.02 M KH2PO4 (65:35), and a flow rate was 1 ml/min. 20 μl of sample was injected. Quantification of aceclofenac was accomplished with width ratio of aceclofenac and internal standard (Ethyl paraben) Dissolution rate (%) of aceclofenac contained in the solid powder preparations, prepared in example, was measured according to Experimental 5. Content of aceclofenac obtained in Experimental Example 4 was used as 100% and dissolution rate of aceclofenac contained in the solid powder preparations prepared in example was given as a percentage. Dissolution concentration (μg/ml) and dissolution rate (%) of aceclofenac contained in solid powder preparation in artificial gastric juice were measured, the results are given in Tables 1 to 3, below, […]

Structure (SMILES): O=C(O)COC(=O)Cc1ccccc1Nc1c(Cl)cccc1Cl [Aceclofenac]
- Dissolution concentration (15 min): 0.075 µg/mL
- Dissolution rate (15 min): (0.04) %
- Dissolution concentration (30 min): 0.063 µg/mL
- Dissolution rate (30 min): (0.03) %
- Dissolution concentration (45 min): 0.088 µg/mL
- Dissolution rate (45 min): (0.05) %
- Dissolution concentration (60 min): 0.090 µg/mL
- Dissolution rate (60 min): (0.05) %
- Dissolution concentration (90 min): 0.236 µg/mL
- Dissolution rate (90 min): (0.12) %
